A short description of the data set: Ratio of drug level in brain to plasma in Sprague-Dawley rat by HPLC and MS-MS method. It is filed as ADME, cell-free. The note with it: read-out: BPR.
In the case of `Cc1cccc(-n2nnc([C@@H](C)Oc3nnc(-c4cn[nH]c(=O)c4)n3C)n2)c1`, the Kp is < 0.5.

On to `C[C@@H](Oc1nnc(-c2cn[nH]c(=O)c2)n1C)c1cc(-c2cccc(Cl)c2)on1`, for which the Kp was < 0.5.

For `C[C@@H](Oc1nnc(-c2ccn(C)c(=O)c2)n1C)c1cc(-c2cccc(Cl)c2)on1`, the Kp is < 0.5.

As for `C[C@@H](Oc1nnc(-c2cc[nH]c(=O)c2)n1C)c1noc(-c2cccc(Cl)c2)n1`, the Kp was < 0.5.

Take `C[C@@H](Oc1nnc(-c2cc[nH]c(=O)c2)n1C)c1nnn(-c2cccc(Cl)c2)n1`: the Kp is < 0.5.

Take `Cc1cccc(-c2cc([C@@H](C)Oc3nnc(-c4cn[nH]c(=O)c4)n3C)no2)c1`: the Kp was < 0.5.

In the case of `Cn1c(OCc2cc(-c3cccc(Cl)c3)on2)nnc1-c1cc[nH]c(=O)c1`, the Kp is < 0.5.

As to `C[C@@H](Oc1nnc(-c2cn[nH]c(=O)c2)n1C)c1nnn(-c2cccc(Cl)c2)n1`, the Kp is < 0.5.

Take `C[C@@H](Oc1nnc(-c2cn[nH]c(=O)c2)n1C)c1noc(-c2cccc(Cl)c2)n1`: the Kp was < 0.5.

For the compound `C[C@@H](Oc1nnc(-c2ccn(C)c(=O)c2)n1C)c1noc(-c2cccc(Cl)c2)n1`, the Kp is < 0.5.

These data come from ChEMBL document CHEMBL3880408, “MgluR5 modulators” (2008).
